The values below come from article PMC9667546, “Selective Inhibition of Bruton’s Tyrosine Kinase by a Designed Covalent Ligand Leads to Potent Therapeutic Efficacy in Blood Cancers Relative to Clinically Used Inhibitors” (ACS Pharmacology & Translational Science, 2022).

One assay deals with T1, BMX (Homo sapiens, UniProt P51813).
T1 construct: host or cells: HEK296T (so in the source)
T1 sequence (P51813 1-675): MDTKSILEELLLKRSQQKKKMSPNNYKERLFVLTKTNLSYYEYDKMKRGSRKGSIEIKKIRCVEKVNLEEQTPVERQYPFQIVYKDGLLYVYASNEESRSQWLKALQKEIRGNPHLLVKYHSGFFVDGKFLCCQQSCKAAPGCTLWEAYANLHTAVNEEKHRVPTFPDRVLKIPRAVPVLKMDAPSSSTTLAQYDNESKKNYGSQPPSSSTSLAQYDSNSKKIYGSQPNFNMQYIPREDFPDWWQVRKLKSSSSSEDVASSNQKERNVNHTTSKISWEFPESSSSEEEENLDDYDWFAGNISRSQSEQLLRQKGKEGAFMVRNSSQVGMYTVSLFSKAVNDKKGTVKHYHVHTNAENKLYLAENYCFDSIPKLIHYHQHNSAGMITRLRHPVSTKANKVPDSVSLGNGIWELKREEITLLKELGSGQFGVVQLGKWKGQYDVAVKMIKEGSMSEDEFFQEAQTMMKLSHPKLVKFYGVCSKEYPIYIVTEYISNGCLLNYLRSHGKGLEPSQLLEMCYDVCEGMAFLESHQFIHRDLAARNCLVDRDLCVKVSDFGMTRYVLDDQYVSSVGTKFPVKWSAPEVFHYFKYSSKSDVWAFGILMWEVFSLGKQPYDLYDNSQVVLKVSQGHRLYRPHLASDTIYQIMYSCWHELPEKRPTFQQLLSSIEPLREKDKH
Kind of assay: NanoBRET in-cell target engagement, BMX. In kind it is binding. The method, then:
(§1) In-cell target engagement was performed at Reaction Biology Corporation, using NanoBRET technology. Very briefly, HEK296T cells were transfected and treated in duplicate with JS25 for 1 h of incubation. The compound was diluted 10 times with 3-fold dilution, starting at 1 μM. Curve fits were performed only when the % NanoBret signal at the highest concentration of compounds was less than 55%. The IC50 values were determined using GraphPad Prism 8 ([…]).
(BRET reads energy transfer from a luciferase to a nearby fluorophore.)

A further assay relates to HL-60 cells (APML). Kind of assay: Cell viability assay (CellTiter-Glo), HL-60. The assay is classed as cell-based. The conditions noted are these: Homo sapiens, 72 h, n = 3. The method, then:
(§2) All cell lines were purchased from ATCC, except for DoHH-2 cells that were obtained from DSMZ. Cells were cultivated in complete DMEM supplemented with 10% (vol/vol) FBS (Gibco) and 1% of penicillin/streptomycin (Gibco). The cells were grown in a humidified atmosphere of 5% CO2 at 37°C, with the medium changed every other day.
(§3) Cells were inoculated at a density of 5000 cells/well. Serially diluted compounds (starting at 50 μM) were added 24 h later. The assay was performed in triplicates. After 72 h of incubation, cellular viability was assessed by CellTiter-Glo (Promega) according to the manufacturer’s instructions. The values were normalized with the vehicle (DMSO), and the IC50 was calculated using GraphPad Prism 8.

Another assay has as its target T2, JAK3 (Homo sapiens, UniProt P52333).
T2 construct: host or cells: HEK296T (so in the source)
Kind of assay: NanoBRET in-cell target engagement, JAK3. In kind it is binding. The conditions noted are these: HEK296T cells, 1 h incubation, average of duplicates. The method, then: as §1

The target of the next assay is T3, ITK (Homo sapiens, UniProt Q08881).
T3 construct: host or cells: HEK296T (so in the source)
T3 sequence (Q08881 1-620): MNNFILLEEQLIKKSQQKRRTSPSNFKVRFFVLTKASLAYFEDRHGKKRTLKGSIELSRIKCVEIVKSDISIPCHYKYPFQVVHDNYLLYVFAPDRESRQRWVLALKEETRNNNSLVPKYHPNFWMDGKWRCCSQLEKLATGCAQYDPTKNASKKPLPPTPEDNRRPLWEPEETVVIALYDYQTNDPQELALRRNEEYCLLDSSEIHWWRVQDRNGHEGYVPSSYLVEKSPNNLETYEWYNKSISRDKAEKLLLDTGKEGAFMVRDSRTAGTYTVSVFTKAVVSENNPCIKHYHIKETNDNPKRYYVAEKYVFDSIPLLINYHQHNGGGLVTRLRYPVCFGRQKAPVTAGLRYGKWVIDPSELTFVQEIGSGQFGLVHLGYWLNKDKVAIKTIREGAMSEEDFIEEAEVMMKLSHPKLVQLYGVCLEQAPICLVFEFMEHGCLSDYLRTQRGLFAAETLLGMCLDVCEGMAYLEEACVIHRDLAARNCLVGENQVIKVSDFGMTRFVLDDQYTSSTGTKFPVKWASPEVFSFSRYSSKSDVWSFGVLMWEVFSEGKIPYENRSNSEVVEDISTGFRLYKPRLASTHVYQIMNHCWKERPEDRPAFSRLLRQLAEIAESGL
Kind of assay: NanoBRET in-cell target engagement, ITK. The assay is classed as binding. As to the method:
as §1

In a further assay the test system is JURKAT cells. Kind of assay: Cell viability assay (CellTiter-Glo), JURKAT. In kind it is cell-based. The conditions noted are these: Homo sapiens, 72 h, n = 3. The method, then:
as §2, §3
On the technique in general: In ATP-based viability assays light output follows the ATP content of the culture.

The test system of a further assay is DoHH-2 cells (DLBCL). Kind of assay: Cell viability assay (CellTiter-Glo), DoHH-2. In kind it is cell-based. The settings on record: Homo sapiens, 72 h, n = 3. As to the method: as §2, §3
For a further assay, the target named is T4, ERBB2 (Homo sapiens, UniProt P04626).
T4 construct: host or cells: HEK296T (so in the source)
T4 sequence (P04626 23-1255): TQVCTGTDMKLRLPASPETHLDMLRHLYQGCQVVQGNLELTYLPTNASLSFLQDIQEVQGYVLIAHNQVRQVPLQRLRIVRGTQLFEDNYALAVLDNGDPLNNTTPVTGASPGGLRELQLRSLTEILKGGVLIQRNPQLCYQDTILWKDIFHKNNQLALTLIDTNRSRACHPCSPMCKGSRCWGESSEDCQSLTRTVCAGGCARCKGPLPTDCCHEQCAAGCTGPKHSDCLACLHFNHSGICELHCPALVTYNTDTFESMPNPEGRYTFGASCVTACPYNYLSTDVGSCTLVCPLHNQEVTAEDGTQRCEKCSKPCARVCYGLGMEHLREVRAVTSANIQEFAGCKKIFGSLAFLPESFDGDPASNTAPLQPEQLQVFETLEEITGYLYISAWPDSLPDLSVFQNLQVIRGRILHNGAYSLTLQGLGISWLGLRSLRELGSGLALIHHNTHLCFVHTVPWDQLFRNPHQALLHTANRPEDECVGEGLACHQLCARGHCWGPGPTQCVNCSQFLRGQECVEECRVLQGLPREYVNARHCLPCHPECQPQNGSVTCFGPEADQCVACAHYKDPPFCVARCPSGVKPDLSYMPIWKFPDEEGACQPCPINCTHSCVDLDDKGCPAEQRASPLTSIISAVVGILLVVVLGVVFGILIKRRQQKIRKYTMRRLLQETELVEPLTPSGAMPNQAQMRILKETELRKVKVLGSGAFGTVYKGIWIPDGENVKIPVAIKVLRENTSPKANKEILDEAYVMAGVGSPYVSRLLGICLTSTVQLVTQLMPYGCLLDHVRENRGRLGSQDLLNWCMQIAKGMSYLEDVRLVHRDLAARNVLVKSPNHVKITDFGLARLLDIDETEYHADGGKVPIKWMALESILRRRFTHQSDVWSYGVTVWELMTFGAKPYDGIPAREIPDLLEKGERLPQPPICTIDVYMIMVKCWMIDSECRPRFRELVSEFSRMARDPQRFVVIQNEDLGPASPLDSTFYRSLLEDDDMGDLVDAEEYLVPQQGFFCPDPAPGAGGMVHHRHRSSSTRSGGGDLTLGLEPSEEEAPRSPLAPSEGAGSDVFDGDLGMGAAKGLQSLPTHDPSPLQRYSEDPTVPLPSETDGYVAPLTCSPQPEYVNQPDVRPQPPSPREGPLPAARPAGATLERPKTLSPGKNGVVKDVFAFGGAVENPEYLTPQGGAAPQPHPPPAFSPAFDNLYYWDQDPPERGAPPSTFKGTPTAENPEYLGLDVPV
Kind of assay: NanoBRET in-cell target engagement, ERBB2. In kind it is binding. The conditions noted are these: HEK296T cells, 1 h incubation, average of duplicates. The method, then: as §1

The next assay has as its target T5, TXK (Homo sapiens, UniProt P42681).
T5 construct: host or cells: HEK296T (so in the source)
T5 sequence (P42681 1-527): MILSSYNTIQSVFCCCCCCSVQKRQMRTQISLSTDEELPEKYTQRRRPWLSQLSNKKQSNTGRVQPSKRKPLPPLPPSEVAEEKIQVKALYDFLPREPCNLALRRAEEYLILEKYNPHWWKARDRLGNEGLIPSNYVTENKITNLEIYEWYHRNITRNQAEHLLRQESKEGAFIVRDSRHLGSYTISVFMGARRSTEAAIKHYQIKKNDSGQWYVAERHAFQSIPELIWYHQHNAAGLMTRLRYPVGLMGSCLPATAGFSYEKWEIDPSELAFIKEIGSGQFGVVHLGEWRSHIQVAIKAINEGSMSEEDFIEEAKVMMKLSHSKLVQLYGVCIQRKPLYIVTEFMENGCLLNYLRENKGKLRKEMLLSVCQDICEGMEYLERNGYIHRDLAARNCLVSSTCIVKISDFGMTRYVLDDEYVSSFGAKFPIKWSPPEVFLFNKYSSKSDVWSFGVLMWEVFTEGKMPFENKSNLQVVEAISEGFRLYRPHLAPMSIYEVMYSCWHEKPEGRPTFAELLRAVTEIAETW
Kind of assay: NanoBRET in-cell target engagement, TXK. In kind it is binding. As to the method:
as §1

Where [1] appears, read: HEK296T cells, 1 h incubation, average of duplicates.

In general, IC50 refers to the concentration at which inhibition is half-maximal. Read a high IC50 as a need for much substance.

Where only a bound is given, the exact number is not on record here.

T2 sequence (P52333 whole entry): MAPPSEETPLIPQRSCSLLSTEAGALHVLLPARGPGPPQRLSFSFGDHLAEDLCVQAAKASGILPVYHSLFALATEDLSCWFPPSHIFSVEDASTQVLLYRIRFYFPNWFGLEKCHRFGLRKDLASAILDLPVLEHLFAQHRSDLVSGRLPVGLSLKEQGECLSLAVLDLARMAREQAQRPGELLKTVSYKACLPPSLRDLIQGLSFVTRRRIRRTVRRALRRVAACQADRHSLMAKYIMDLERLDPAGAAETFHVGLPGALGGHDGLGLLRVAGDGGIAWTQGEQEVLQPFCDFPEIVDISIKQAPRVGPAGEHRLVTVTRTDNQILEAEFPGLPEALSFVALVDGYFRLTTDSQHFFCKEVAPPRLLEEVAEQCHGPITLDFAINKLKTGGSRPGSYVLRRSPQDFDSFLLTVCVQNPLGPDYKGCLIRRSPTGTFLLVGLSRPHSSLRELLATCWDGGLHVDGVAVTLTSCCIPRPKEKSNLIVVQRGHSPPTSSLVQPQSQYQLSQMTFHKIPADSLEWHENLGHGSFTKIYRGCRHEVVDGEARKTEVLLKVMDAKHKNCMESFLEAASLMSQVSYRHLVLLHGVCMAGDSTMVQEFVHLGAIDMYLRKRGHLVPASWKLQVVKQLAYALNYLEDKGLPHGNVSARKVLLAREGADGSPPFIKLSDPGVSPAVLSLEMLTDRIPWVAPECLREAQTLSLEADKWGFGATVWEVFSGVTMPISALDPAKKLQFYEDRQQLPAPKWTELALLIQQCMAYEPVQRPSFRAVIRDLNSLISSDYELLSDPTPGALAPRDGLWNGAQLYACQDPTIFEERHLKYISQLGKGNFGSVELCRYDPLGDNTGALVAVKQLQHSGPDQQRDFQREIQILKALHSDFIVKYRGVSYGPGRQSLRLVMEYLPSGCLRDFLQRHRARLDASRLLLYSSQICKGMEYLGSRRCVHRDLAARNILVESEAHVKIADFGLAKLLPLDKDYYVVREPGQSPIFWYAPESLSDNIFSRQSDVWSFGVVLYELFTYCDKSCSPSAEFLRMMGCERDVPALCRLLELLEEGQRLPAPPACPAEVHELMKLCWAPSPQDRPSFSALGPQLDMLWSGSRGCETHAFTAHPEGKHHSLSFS

For the molecule `C=CC(=O)Nc1cc(C)cc(-n2c(=O)ccc3cnc4ccc(-c5ccc(NS(C)(=O)=O)cc5)cc4c32)c1` [JS25], at BMX, the “selectivity toward BTK relative to BMX” value is on record as roughly 2 fold. Also, the IC50 at BMX (setting [1]) is 49 nM; in the assay on HL-60 cells (APML) it was 1950 nM; at JAK3, greater than 3 µM; against ITK (setting [1]), 440 nM; in the assay with JURKAT cells, 38.4 ± 0.07 µM; with DoHH-2 cells (DLBCL), 520 ± 20 nM. The figures for the IC50 at ERBB2 and against TXK (setting [1]) were greater than 3 µM and 190 nM, respectively. For the same molecule, on BMX (IC50 kinase/IC50 BTK), the “selectivity (kinase/BTK), BMX” value is listed as 1.7. At ITK, the “selectivity for BTK relative to ITK” value is given as 15 fold. Besides, on ITK (IC50 kinase/IC50 BTK), the “selectivity (kinase/BTK), ITK” value is on record as 15.4. Besides, on TXK, the “selectivity for BTK relative to TXK” value is roughly 7 fold. Moreover, the “selectivity (kinase/BTK), TXK” value at TXK (IC50 kinase/IC50 BTK) stood at 6.7.
